{
  "source": "patent US9856511B2",
  "about": "“Protease deubiquitinating inhibitor screening” (priority 2011, dated 2018)",
  "key": {"[1]": {"system": "isogenic clones of HCT116 colon cancer cells", "assay": "Apoptosis in isogenic HCT116 clones, caspase cleaved cytokeratin-18 ELISA", "type": "cell-based", "description": "The increase in sub G1 DNA content is associated with (i) activation of the apoptosis mediator caspase-3 and (ii) with cleavage of the caspase substrates poly-ADP ribose polymerase (PARP) and cytokeratin-18. […] Apoptosis induction by bortezomib is dependent on p53 and inhibited by overexpression of the Bcl-2 protein (16,17).\nFor determination of apoptosis parental HCT-116 p53+/+ cells were treated with the increasing doses of bortezomib or b-AP15 for 24 h. […] HCT-116 cells were seeded in 96-well microtiter plates at 10,000 cells per well and incubated overnight. Cells were treated with indicated drug for 24 h. At the end of the incubation period, NP40 was added to the tissue culture medium to 0.1% and 25 μl of the content of each well was assayed using the M30-Apoptosense® ELISA as previously described (43). Cell viability was determined by measuring acid phosphatase activity or using the FMCA method (44). For the acid phosphatase activity cells were seeded at 5000 cells per well in 96-well culture plates and incubated for 12 h at 37° C. Compounds were added to the cells in growth media and incubated for 72 h at 37° C. Cells were washed with 200 μl warm PBS. […] Absorbance was measured at 405 nm.\nb-AP15 inhibits degradation of ubiquitin-tagged YFP in a proteasome reporter cell line (FIG. 1a). Levels of ^UbG76V-YFP accumulation were determined by flow cytometry and immunoblotting; immunoblot of ubiquitin conjugation in HCT-116 cells treated with b-AP15 (1 μM) or bortezomib (100 nM) (FIG. 1b). […] Immunoblot of ODC-1 levels in HCT-116 cells following treatment with bortezomib ([…] or b-Ap15 (1 μM) (FIG. 1d); values represent quantified optical density units of ODC-1 normalized to β-actin. Cell cycle profiles of b-AP15 treated HCT-116 cells (FIG. 1e); cells were analyzed by propidium iodide staining and flow cytometry. Levels of caspase activity in isogenic HCT-116 cells as determined by ELISA for caspase cleaved cytokeratin-18 (CK18-Asp398) following treatment with bortezomib (100 nM) or b-AP15 (1 μM) (**′P=0.01, ***′P=0.001) (FIG. 1f). […]"}, "[2]": {"target": "T1, 19S RP (Homo sapiens, UniProt P54578+Q9Y5K5)", "T1 construct": "purchased Boston Biochem E-366", "assay": "Ubiquitin chain disassembly of K48/K63 linked ubiquitin tetramers by 19S RP", "type": "biochemical", "description": "To this end the ability of b-AP15 to inhibit cleavage of recombinant ubiquitin-GFP was assessed. Recombinant ubiquitin-GFP is a substrate for 19S RP DUB activity (22). […] The type of ubiquitin bonds present in the polyubiquitin chain determines the fate of an ubiquitin-modified substrate. K48 linked polyubiquitin chains generally targets conjoined proteins for degradation (23), whereas K63 linked chains are involved in non-proteolytic roles including DNA repair (24) and mitotic chromosome segregation (25). […] The inhibition of ubiquitin chain disassembly observed could account for the accumulation of high molecular weight ubiquitin conjugates in b-AP15 treated cells.\nThe recombinant Ub-GFP plasmid pet19b Ub-M-GFP was generated as described (42). In brief recombinant Ub-GFP was purified from BL21 E. coli cells by His affinity purification. For cleavage assays 19S RP (25 nM) was incubated with 10 mM NEM, 250 μM TPEN or 50 μM b-AP15 for 10 min followed by the addition of recombinant Ub-GFP (200 nM). […] The level of Ub-GFP cleavage or ubiquitin disassembly was determined by immunoblotting with anti ubiquitin antibodies. […] The cleavage of ubiquitinated Hdm2 substrate and ubiquitinated Hdm2 was determined by immunoblotting with anti-Hdm2 antibodies. […]"}, "[3]": {"system": "HCT-116 cells", "assay": "Immunoblot of DNA damage markers (phosphorylated p53, H2AX)", "type": "cell-based", "description": "The turnover of many cell cycle regulatory proteins is controlled by the UPS including inhibitors of the cyclin-dependent kinases p21 Cip1, p27 Kip1 and the tumor suppressor p53 (4). Treatment with b-AP15 increased their levels in a dose dependent manner.\nHCT-116 cells were treated with b-AP15 or doxorubicin (100 nM, as a positive control for genotoxic stress for 18 h) (FIG. 5). Cell lysates were immuno-blotted with antibodies for phosphorylated p53 and histone H2 Ax marker for DNA damage of for total levels of p53 and β-actin as loading controls."}},
  "data": [
    {"smiles": "C=CC(=O)N1C/C(=C\\c2ccc([N+](=O)[O-])cc2)C(=O)/C(=C/c2ccc([N+](=O)[O-])cc2)C1", "note": "[b-AP15]", "values": [
      {"measurement": "apoptosis: effect of genetic disruption of BAX or PUMA", "setting": "[1]", "result": "does not affect b-AP15 sensitivity"},
      {"measurement": "caspase cleavage of cytokeratin-18: effect of p53 disruption or Bcl-2 overexpression", "setting": "[1]", "result": "not affected by genetic disruption of p53 or overexpression of Bcl-2"},
      {"measurement": "19S RP processing of K48 and K63 linked ubiquitin tetramers", "setting": "[2]", "result": "inhibited 19S RP processing of both K48 and K63 linked ubiquitin tetramers"},
      {"measurement": "level of DNA damage markers phosphorylated p53 (Ser 15) and H2AX (Ser 139)", "setting": "[3]", "result": "no increase was observed"}
    ]}
  ]
}
